Data published in patent publication US10947196B2, “Beta adrenergic agonist and methods of using the same” (CURASEN THERAPEUTICS, INC., priority 2019, dated 2021).
Where two headings read alike, the source gives them in different places.

What was measured:
[1] = Hepatocyte stability (human); type: in vitro ADME; conditions: 0.5×10^6 viable cells/mL
Experimental: 10 mM and 100 μM stock solutions of test compound(s) and a positive control were prepared in appropriate solvent (DMSO). In separate conical tubes, the 10 mM test compound and the positive control were diluted to 100 μM by combining 198 μL of 50% acetonitrile/50% water and 2 μL of 10 mM stock. The 100 μM test compound and the positive control were diluted to 30 μM by combining 140 μL of 50% acetonitrile/50% water and 60 μL of 100 μM stock solution. The 100 μM test compound and the positive control were diluted to 10 μM by combining 180 μL of 50% acetonitrile/50% water and 20 μL of 100 μM stock solution. The 100 μM test compound and the positive control were diluted to 3 μM by combining 194 μL of 50% acetonitrile/50% water and 6 μL of 100 μM stock solution.
Incubation medium (William's E Medium supplemented with GlutaMAX) and hepatocyte thawing medium was placed in a 37° C. water bath, and allowed to warm for at least 15 minutes prior to use. A vial of cryopreserved hepatocytes from storage was then removed, ensuring that the vial remains at cryogenic temperatures until thawing process ensues. Cells were thawed by placing the vial in a 37° C. water bath and gently shaking the vial for 2 minutes. After thawing was completed, the vial was sprayed with 70% ethanol and transferred to a biosafety cabinet.
A wide-bore pipette tip was used to transfer hepatocytes into 50 mL conical tube containing thawing medium. The 50 mL conical tube was placed into a centrifuge and spun at 100 g for 10 minutes. Upon completion of spin, the thawing medium was aspirated and the hepatocytes were resuspended in enough incubation medium to yield ˜1.5×10^6 cells/mL.
Using AOPI staining solution, cells were counted and the viable cell density was determined. Cells with poor viability (<75% viability) are not acceptable for use. […]
All calculations were carried out using Microsoft Excel. Peak areas were determined from extracted ion chromatograms. […]
The in vitro half-life (in vitro t1/2) was determined from the slope value: in vitro t1/2=0.693/k

[2] = Dog pharmacokinetic studies; type: in vivo, male Beagle dogs; conditions: for AUC(0-inf) / Cmax / MRT / Tmax: male, Beagle
Experimental: (§1) The rat pharmacokinetics studies of exemplary compounds 03-3, 03-5, and 03-115 were conducted with male SD rats. These rats were typically about 6-8 weeks old, weighing 200 g to 300 g. Animals were fasted overnight and free access to food 4 hours after dosing. A required volume of vehicle was added to reach the target concentration of the test article and vehicle component to prepare for the dosing. The dosing vehicle was PEG400 or 30% PEG400 in saline for IV, or 0.5% methylcellulose in water for PO. For IV dosing, the animals were administered intravenously via tail vein. For PO dosing, the animals were administered via oral gavage. After dosing, blood sample was collected (˜0.2 mL per time point) through jugular vein or heart puncture. Blood of each sample was transferred into plastic micro centrifuge tubes containing EDTA-K2. Collection tubes with blood samples and anticoagulant were inverted several times for proper mixing of the tube contents and then placed on wet ice. The blood samples were centrifuged at 2000 g for 5 minutes at 4° C. to obtain plasma which was stored in a freezer at −75±15° C. prior to analysis. Samples were analyzed using LC-MS/MS. WinNonlin were used for pharmacokinetic calculations.
Dog pharmacokinetics studies of exemplary compounds 03-3, 03-5, and 03-115 were conducted substantially similarly to the rat pharmacokinetic studies, instead using male Beagle dogs. Animals for PO studies were food fasted overnight prior to dosing and were fed approximately 2 hours after dosing. Animals for IV studies had free access to food and water. Blood samples were collected through venipuncture of peripheral veins except the dosing vein.

[3] = Rat pharmacokinetic studies; type: in vivo, male SD rats; design: AUClast/D: unit not given here; conditions: for AUC(0-t) / AUC(0-inf) / C0 / half-life / MRT inf / Vd / Cmax / Tmax: male, SD; for MRT inf: read-out: MRTInf—obs; for Vd: read-out: Vss—obs
Experimental: as §1

| Structure (SMILES) | Hepatocyte stability, Human [1] | F ([2]; PO 1 mg/kg) [%] | AUC(0-inf) ([2]; plasma, PO 1 mg/kg) [ng·h/mL] | Cmax ([2]; plasma, PO 1 mg/kg) [ng/mL] | MRT ([2]; plasma, PO 1 mg/kg) [h] | Tmax ([2]; plasma, PO 1 mg/kg) [h] | AUClast/D ([3]; IV 1 mg/kg) | AUC—% Extrap—obs ([3]; IV 1 mg/kg) [%] | Cl_obs ([3]; IV 1 mg/kg) [mL/min/kg] | AUClast/D ([3]; PO 5 mg/kg) | AUC—% Extrap—obs ([3]; PO 5 mg/kg) [%] | F ([3]; PO 5 mg/kg) [%] | AUC(0-inf) ([3]; plasma, IV 1 mg/kg) [ng·h/mL] | C0 ([3]; plasma, IV 1 mg/kg) [ng/mL] | half-life ([3]; plasma, IV 1 mg/kg) [h] | MRT inf ([3]; plasma, IV 1 mg/kg) [h] | Vd ([3]; plasma, IV 1 mg/kg) [L/kg] | AUC(0-inf) ([3]; plasma, PO 5 mg/kg) [ng·h/mL] | AUC(0-t) ([3]; plasma, PO 5 mg/kg) [ng·h/mL] | Cmax ([3]; plasma, PO 5 mg/kg) [ng/mL] | also measured |
| --- | --- | --- | --- | --- | --- | --- | --- | --- | --- | --- | --- | --- | --- | --- | --- | --- | --- | --- | --- | --- | --- |
| CC(C)(C)NC[C@H](O)c1cccc(C(F)(F)F)n1 [Compound 03-3] | 0.9 μL/min/10^6 cells | 111 | 584 | 227 | 1.93 | 0.5 | 546 | 1.14 | 30.2 | 845 | 0.0970 | 153 | 552 | 388 | 1.28 | 1.61 | 2.92 | 4230 | 4220 | 818 | F ([2]; PO 2.5 mg/kg): 194%; AUC(0-inf) ([2]; plasma, PO 2.5 mg/kg): 1590 ng·h/mL; Cmax ([2]; plasma, PO 2.5 mg/kg): 413 ng/mL; MRT ([2]; plasma, PO 2.5 mg/kg): 3.19 h; Tmax ([2]; plasma, PO 2.5 mg/kg): 0.5 h; AUC(0-t) ([3]; in vivo, IV 1 mg/kg): 546 ng·h/mL; Tmax ([3]; plasma, PO 5 mg/kg): 1.17 h; half-life ([3]; plasma, PO 5 mg/kg): 2.44 h; MRT inf ([3]; plasma, PO 5 mg/kg): 3.93 h |
| Cc1ncccc1[C@@H](O)CNC(C)(C)C [Compound 03-115] | 0.32 μL/min/10^6 cells | – | – | – | – | – | – | – | 103 | – | – | 23 | – | – | – | – | – | – | – | – | F ([2]; PO 0.5 mg/kg): 53%; F ([2]; PO 1.5 mg/kg): 71%; AUC(0-inf) ([2]; in vivo, PO 0.5 mg/kg): 132 ng·h/mL; Cmax ([2]; in vivo, PO 0.5 mg/kg): 72.3 ng/mL; MRT ([2]; in vivo, PO 0.5 mg/kg): 1.82 h; Tmax ([2]; in vivo, PO 0.5 mg/kg): 0.5 h; AUC(0-inf) ([2]; in vivo, PO 1.5 mg/kg): 537 ng·h/mL; Cmax ([2]; in vivo, PO 1.5 mg/kg): 387 ng/mL; MRT ([2]; in vivo, PO 1.5 mg/kg): 1.69 h; Tmax ([2]; in vivo, PO 1.5 mg/kg): 0.33 h; AUC(0-inf) ([3]; in vivo, IV 1 mg/kg): 164 ng·h/mL; C0 ([3]; in vivo, IV 1 mg/kg): 512 ng/mL; half-life ([3]; in vivo, IV 1 mg/kg): 0.36 h; Vd ([3]; in vivo, IV 1 mg/kg): 2.4 L/kg; AUC(0-inf) ([3]; in vivo, PO 5 mg/kg): 192 ng·h/mL; Cmax ([3]; in vivo, PO 5 mg/kg): 174 ng/mL; Tmax ([3]; in vivo, PO 5 mg/kg): 0.25 h; half-life ([3]; in vivo, PO 5 mg/kg): 1.61 h; MRT inf ([3]; in vivo, PO 5 mg/kg): 1.06 h |
| CC(C)(C)NC[C@H](O)c1cccc(C#N)n1 [Compound 03-5, (S)-6-(2-(tert-butylamino)-1-hydroxyethyl)picolinonitrile] | 0.36-0.59 μL/min/10^6 cells | 70 | 273 | 164 | 1.37 | 0.33 | 461 | 0.457 | 37.3 | 450 | 4.10 | 101 | 463 | 468 | 0.644 | 0.873 | 1.89 | 2340 | 2250 | 717 | F ([2]; PO 0.3 mg/kg): 72%; AUC(0-inf) ([2]; plasma, PO 0.3 mg/kg): 55.4 ng·h/mL; Cmax ([2]; plasma, PO 0.3 mg/kg): 43.2 ng/mL; MRT ([2]; plasma, PO 0.3 mg/kg): 1.22 h; Tmax ([2]; plasma, PO 0.3 mg/kg): 0.42 h; AUC(0-t) ([3]; plasma, IV 1 mg/kg): 461 ng·h/mL; Tmax ([3]; plasma, PO 5 mg/kg): 0.75 h; half-life ([3]; plasma, PO 5 mg/kg): 1.61 h; MRT inf ([3]; plasma, PO 5 mg/kg): 2.62 h |
